In patent publication US20100256402A1, “NOVEL SOLVATE” (Sandoz AG, priority 2007, published 2010):
In brackets after ≈: the same amount, converted by molar mass.

Key:
Assay type in all cases: physicochemical
[1] = Water solubility testing (saturated solution in distilled water, UV-vis 347 nm); conditions: for Concentration (water solubility): 30 min
Description: A UV-vis Lambda 35 spectrophotometer (Perkin-Elmer) was used (A=347 nm, 1.0 cm quartz cells). Perkin Elmer® UV WinLab-5.1 software was used.
A saturated solution of Tigecycline in distilled water was prepared and the suspension was stirred at room temperature for 30 minutes with a stirring speed of 1000 U/min. The suspension was filtrated through a 0.45 μm filter. Finally the resulting solution was diluted 10000-fold and measured against water at a wavelength of 347 nm.

[2] = Stability after storing different forms of Tigecycline at 80° C. for 7 days; conditions: for 4-Epi-Tigecycline ambient conditions / Total impurities ambient conditions: ambient conditions (before storage); for 4-Epi-Tigecycline 7 days at 80° C. / Total impurities 7 days at 80° C.: after storing 7 days at 80° C.
[3] = Water content and hygroscopicity, open storage for 24 hours at 80% relative humidity; conditions: for water uptake 1 day at 80% rH: open storage for 24 hours at 80% relative humidity; for water content 1 day at 80% rH: open storage 1 day at 80% rH
Excerpt: Furthermore suitable crystalline forms of Tigecycline should be low hygroscopic, as water uptake may cause the formation of undesired byproducts like e.g. 4-Epi-Tigecycline. […] Therefore crystalline form X is less hygroscopic than forms I, II, Ill and V of WO 2006/128150 and also less hygroscopic than form I of WO 2007/127292.

CN(C)c1cc(NC(=O)CNC(C)(C)C)c(O)c2c1C[C@H]1C[C@H]3[C@H](N(C)C)C(O)=C(C(N)=O)C(=O)[C@@]3(O)C(O)=C1C2=O [WO 2006/128150 I, Tigecycline]
Concentration (water solubility) [1]: 201 mg/mL
4-Epi-Tigecycline ambient conditions [2]: 0.36%
Total impurities ambient conditions [2]: 0.75%
water uptake 1 day at 80% rH [3]: 3.00%

CN(C)c1cc(NC(=O)CNC(C)(C)C)c(O)c2c1C[C@H]1C[C@H]3[C@H](N(C)C)C(O)=C(C(N)=O)C(=O)[C@@]3(O)C(O)=C1C2=O [WO 2006/128150 II, Tigecycline]
Concentration (water solubility) [1]: 170 mg/mL
Total impurities ambient conditions [2]: 1.6%

CN(C)c1cc(NC(=O)CNC(C)(C)C)c(O)c2c1C[C@H]1C[C@H]3[C@H](N(C)C)C(O)=C(C(N)=O)C(=O)[C@@]3(O)C(O)=C1C2=O [WO 2006/128150 III, Tigecycline]
Concentration (water solubility) [1]: 174 mg/mL
4-Epi-Tigecycline ambient conditions [2]: 0.16%
Total impurities ambient conditions [2]: 0.16%
water content [%] ambient conditions [3]: 0.69%

CN(C)c1cc(NC(=O)CNC(C)(C)C)c(O)c2c1C[C@H]1C[C@H]3[C@H](N(C)C)C(O)=C(C(N)=O)C(=O)[C@@]3(O)C(O)=C1C2=O [WO 2006/128150 IV, Tigecycline]
solubility at 30 min ([1]; distilled water, water, thermodynamic from solid, distilled water, room temperature, stirred 30 minutes, 0.45 μm filter, read-out: Concentration (water solubility)): 322 mg/mL (≈ 550 mM)
4-Epi-Tigecycline 7 days at 80° C. [2]: 0.38%
Total impurities 7 days at 80° C. [2]: 0.87%
4-Epi-Tigecycline ambient conditions [2]: 0.23%
Total impurities ambient conditions [2]: 0.4%
water content [%] ambient conditions [3]: 2.90%
water uptake 1 day at 80% rH [3]: 0.43%

CN(C)c1cc(NC(=O)CNC(C)(C)C)c(O)c2c1C[C@H]1C[C@H]3[C@H](N(C)C)C(O)=C(C(N)=O)C(=O)[C@@]3(O)C(O)=C1C2=O [WO 2006/128150 V, Tigecycline]
4-Epi-Tigecycline 7 days at 80° C. [2]: 0.18%
Total impurities 7 days at 80° C. [2]: 0.37%
4-Epi-Tigecycline ambient conditions [2]: < 0.05%
Total impurities ambient conditions [2]: 0.22%
water content [%] ambient conditions [3]: 0.19%

CN(C)c1cc(NC(=O)CNC(C)(C)C)c(O)c2c1C[C@H]1C[C@H]3[C@H](N(C)C)C(O)=C(C(N)=O)C(=O)[C@@]3(O)C(O)=C1C2=O [WO 2007/127292 I, Tigecycline]
Concentration (water solubility) [1]: 54 mg/mL
4-Epi-Tigecycline 7 days at 80° C. ([2]; listed as WO 2007/127792 I): 1.26%
Total impurities 7 days at 80° C. ([2]; listed as WO 2007/127792 I): 2.22%
4-Epi-Tigecycline ambient conditions ([2]; listed as WO 2007/127792 I): 0.34%
Total impurities ambient conditions ([2]; listed as WO 2007/127792 I): 0.59%
water content [%] ambient conditions [3]: 0.13%
water content 1 day at 80% rH [3]: 6.39%
water uptake 1 day at 80% rH [3]: 6.26%
water uptake 1 day at 80% rH ([3]; listed as form I of WO 2007/127292): 6.26%

CN(C)c1cc(NC(=O)CNC(C)(C)C)c(O)c2c1C[C@H]1C[C@H]3[C@H](N(C)C)C(O)=C(C(N)=O)C(=O)[C@@]3(O)C(O)=C1C2=O [WO 2007/127292 II, Tigecycline]
4-Epi-Tigecycline 7 days at 80° C. ([2]; listed as WO 2007/127792 II): 0.38%
Total impurities 7 days at 80° C. ([2]; listed as WO 2007/127792 II): 0.91%
4-Epi-Tigecycline ambient conditions ([2]; listed as WO 2007/127792 II): 0.17%
Total impurities ambient conditions ([2]; listed as WO 2007/127792 II): 0.24%
water content [%] ambient conditions [3]: 0.18%
water content 1 day at 80% rH [3]: 0.25%
water uptake 1 day at 80% rH [3]: 0.07%

CN(C)c1cc(NC(=O)CNC(C)(C)C)c(O)c2c1C[C@H]1C[C@H]3[C@H](N(C)C)C(O)=C(C(N)=O)C(=O)[C@@]3(O)C(O)=C1C2=O [X, Tigecycline]
Concentration (water solubility) [1]: 162 mg/mL
4-Epi-Tigecycline 7 days at 80° C. [2]: 0.79%
Total impurities 7 days at 80° C. [2]: 3.48%
4-Epi-Tigecycline ambient conditions [2]: 0.2%
Total impurities ambient conditions [2]: 0.58%
water content [%] ambient conditions [3]: 0.29%
water content 1 day at 80% rH [3]: 0.86%
water uptake 1 day at 80% rH [3]: 0.57%
water uptake 1 day at 80% rH ([3]; listed as form X): 0.57%
